Laboratory results as given in US8388986B2, “Use of cationic surfactants in cosmetic preparations” (priority 2001, dated 2013).

Tests used:
[1] = system: Arthrobacter oxydans ATCC 8010; test: minimum inhibitory concentration; assay type: cell-based; settings: Gram + Bacteria
[2] = system: Staphylococcus aureus ATCC 6538; test: minimum inhibitory concentration; assay type: cell-based; settings: Gram + Bacteria
[3] = system: Micrococcus luteus ATCC 9631; test: minimum inhibitory concentration; assay type: cell-based; settings: Gram + Bacteria
[4] = system: Lactobacillus delbrueckii ssp lactis CECT 372; test: minimum inhibitory concentration; assay type: cell-based; settings: Gram + Bacteria
[5] = system: Citrobacter freundii ATCC 22636; test: minimum inhibitory concentration; assay type: cell-based; settings: Gram − Bacteria
[6] = system: Enterobacter aerogenes CECT 689; test: minimum inhibitory concentration; assay type: cell-based; settings: Gram − Bacteria
Escherichia coli 0157H7 = test: minimum inhibitory concentration; assay type: cell-based; settings: Gram − Bacteria
[7] = system: Klebsiella pneumoniae var pneumoniae CECT 178; test: minimum inhibitory concentration; assay type: cell-based; settings: Gram − Bacteria
[8] = system: Proteus mirabilis CECT 170; test: minimum inhibitory concentration; assay type: cell-based; settings: Gram − Bacteria
[9] = system: Serratia marcenses CECT 274; test: minimum inhibitory concentration; assay type: cell-based; settings: Gram − Bacteria
[10] = system: Mycobacterium phlei ATCC 41423; test: minimum inhibitory concentration; assay type: cell-based; settings: Gram + Bacteria
[11] = system: Aspergillus niger ATCC 14604; test: minimum inhibitory concentration; assay type: cell-based; settings: Fungi
[12] = system: Aureobasidium pullulans ATCC 9348; test: minimum inhibitory concentration; assay type: cell-based; settings: Fungi
[13] = system: Gliocadium virens ATCC 4645; test: minimum inhibitory concentration; assay type: cell-based; settings: Fungi
[14] = system: Penicillium chrysogenum CECT 2802; test: minimum inhibitory concentration; assay type: cell-based; settings: Fungi
[15] = system: Penicillium funiculosum CECT 2914; test: minimum inhibitory concentration; assay type: cell-based; settings: Fungi
[16] = system: Rhodotorula rubra CECT 1158; test: minimum inhibitory concentration; assay type: cell-based; settings: Yeast
Fungi = test: preservative efficacy (Antimicrobial Effectiveness Testing USP 24th Edition) in cosmetic formulations; assay type: cell-based, Aspergillus niger ATCC 16404; settings: 0.20 g of LAE
Description: (§1) This assay consists of the contamination of the protecting formulations with an inoculum mixture of 10^8 cfu/mL concentration, for each of the microorganisms, and the determination of the number of viable cells in the time. This inoculum mixture is composed of the following microorganisms:
(§2) The cosmetic composition to be analysed is divided into sterile containers with 50 g of product for each flask. Each container is inoculated with 0.5 mL of inoculum (10^8 cfu/mL). The target concentration is 10^6 cfu/mL, approximately. All the containers are kept at a temperature between 20-25° C. and are protected from light.
(§3) The level of the microbial contamination is checked at 0 hours, 7 days, 14 days and 28 days. The number of colonies is evaluated by dilution in buffer peptone with the appropriate neutraliser agent of the preservative. The culture media used for counting the microorganisms are: Soya triptone (35-37° C., 48 hours) for the determination of bacteria; Sabouraud agar with chloramphenicol for fungi and yeast (25° C., 3-5 days).
(§4) According to Antimicrobial Effectiveness Testing USP 24th Edition, 1999 (pp. 1809-1811), an antimicrobial preservative is considered to be effective in topically used products made with aqueous bases or vehicles, non-sterile nasal products and emulsions, including those applied to mucous membranes, if: • Not less than 2.0 logarithm reduction from the initial calculated bacteria's count is reached at 14 days and no increase from the 14 days' count at 28 days is detected; and • No increase from the initial calculated count of yeast and moulds is observed.

inoculum mixture = test: preservative efficacy (Antimicrobial Effectiveness Testing USP 24th Edition), 28 days' check; assay type: cell-based; settings: 0.20 g of LAE
Description: as §1, §2, §3, §4

In the case of `CCCCCCCCCCCC(=O)N[C@@H](CCCN=C(N)N)C(=O)OCC.Cl` [LAE, ethyl ester of the lauramide of the arginine monohydrochloride], the M.I.C. [1] is reported as 64 ppm, the M.I.C. [2] is reported as 32 ppm and the M.I.C. [3] is reported as 128 ppm. For the same compound, the M.I.C. [4] was 16 ppm, the M.I.C. [5] was 64 ppm and the M.I.C. [6] was 32 ppm. For the same compound, the M.I.C. (Escherichia coli 0157H7) was 20 ppm, the M.I.C. [7] was 32 ppm and the M.I.C. [8] was 32 ppm. It also gave a M.I.C. [9] of 32 ppm, a M.I.C. [10] of 2 ppm and a M.I.C. [11] of 32 ppm. It also gave a M.I.C. [12] of 16 ppm, a M.I.C. [13] of 32 ppm and a M.I.C. [14] of 128 ppm. For the same compound, the M.I.C. [15] was 16 ppm, the M.I.C. [16] was 16 ppm and the “viable count With LAE” value (Fungi; Example 1, oil-in-water emulsion with non-ionic surfactant, 7 days) was <9.9 · 10^1 cfu/mL. For the same compound, the “viable count With LAE” value (Fungi; Example 1, oil-in-water emulsion with non-ionic surfactant, 14 days) was <9.9 · 10^1 cfu/mL, the “viable count With LAE” value (Fungi; Example 1, oil-in-water emulsion with non-ionic surfactant, Initial) was 1.7 · 10^4 cfu/mL and the “viable count With LAE” value (Fungi; Example 2, oil-in-water emulsion with an ionic emulsifier, 7 days) was <9.9 · 10^1 cfu/mL. The “viable count With LAE” value (Fungi; Example 2, oil-in-water emulsion with an ionic emulsifier, 14 days) was <9.9 · 10^1 cfu/mL, the “viable count With LAE” value (Fungi; Example 2, oil-in-water emulsion with an ionic emulsifier, Initial) was 1.4 · 10^4 cfu/mL and the “viable count With LAE” value (Fungi; Example 3, water in oil emulsion with non-ionic emulsifiers, 7 days) was <9.9 · 10^1 cfu/mL. The “viable count With LAE” value (Fungi; Example 3, water in oil emulsion with non-ionic emulsifiers, 14 days) was <9.9 · 10^1 cfu/mL, the “viable count With LAE” value (Fungi; Example 3, water in oil emulsion with non-ionic emulsifiers, Initial) was 1.0 · 10^4 cfu/mL and the “viable count With LAE” value (Fungi; Example 4, aqueous solution with a surfactants' mixture (bath gels, disodium cocoamfoacetate), 7 days) was 2.7 · 10^2 cfu/mL. The “viable count With LAE” value (Fungi; Example 4, aqueous solution with a surfactants' mixture (bath gels, disodium cocoamfoacetate), 14 days) was <9.9 · 10^1 cfu/mL, the “viable count With LAE” value (Fungi; Example 4, aqueous solution with a surfactants' mixture (bath gels, disodium cocoamfoacetate), Initial) was 1.9 · 10^4 cfu/mL and the “viable count With LAE” value (Fungi; Example 5, aqueous solution with a surfactants' mixture (bath gels, disodium lauryl sulfosuccinate), 7 days) was <9.9 · 10^1 cfu/mL. For the same compound, the “viable count With LAE” value (Fungi; Example 5, aqueous solution with a surfactants' mixture (bath gels, disodium lauryl sulfosuccinate), 14 days) was <9.9 · 10^1 cfu/mL, the “viable count With LAE” value (Fungi; Example 5, aqueous solution with a surfactants' mixture (bath gels, disodium lauryl sulfosuccinate), Initial) was 1.4 · 10^4 cfu/mL and the “viable count With LAE” value (Fungi; Example 6, hydroalcoholic gel (after-shaving lotions), 7 days) was 4.1 · 10^2 cfu/mL. For the same compound, the “viable count With LAE” value (Fungi; Example 6, hydroalcoholic gel (after-shaving lotions), 14 days) was <9.9 · 10^1 cfu/mL, the “viable count With LAE” value (Fungi; Example 6, hydroalcoholic gel (after-shaving lotions), Initial) was 9.1 · 10^4 cfu/mL and the “viable count With LAE” value (Fungi; Example 7, facial tonic, 7 days) was 1.3 · 10^2 cfu/mL. The “viable count With LAE” value (Fungi; Example 7, facial tonic, 14 days) was <9.9 · 10^1 cfu/mL, the “viable count With LAE” value (Fungi; Example 7, facial tonic, Initial) was 2.1 · 10^4 cfu/mL and the “viable count With LAE” value (Fungi; Example 8, mask-up cleaner, 7 days) was 3.5 · 10^2 cfu/mL. For the same compound, the “viable count With LAE” value (Fungi; Example 8, mask-up cleaner, 14 days) was <9.9 · 10^1 cfu/mL, the “viable count With LAE” value (Fungi; Example 8, mask-up cleaner, Initial) was 7.6 · 10^4 cfu/mL and the “viable count With LAE” value (Fungi; Example 9, fluid oil-in-water emulsion with non-ionic surfactants (body oil), 7 days) was 1.4 · 10^2 cfu/mL. The “viable count With LAE” value (Fungi; Example 9, fluid oil-in-water emulsion with non-ionic surfactants (body oil), 14 days) was <9.9 · 10^1 cfu/mL, the “viable count With LAE” value (Fungi; Example 9, fluid oil-in-water emulsion with non-ionic surfactants (body oil), Initial) was 7.6 · 10^4 cfu/mL and the “viable count With LAE” value (Fungi; Example 10, toothpaste formulation, 7 days) was 1.6 · 10^2 cfu/mL. The “viable count With LAE” value (Fungi; Example 10, toothpaste formulation, 14 days) was <9.9 · 10^1 cfu/mL, the “viable count With LAE” value (Fungi; Example 10, toothpaste formulation, Initial) was 5.6 · 10^4 cfu/mL and the “viable count With LAE” value (Fungi; Example 11, aqueous solution with surfactants (shampoos), 7 days) was 1.1 · 10^2 cfu/mL. The “viable count With LAE” value (Fungi; Example 11, aqueous solution with surfactants (shampoos), 14 days) was <9.9 · 10^1 cfu/mL, the “viable count With LAE” value (Fungi; Example 11, aqueous solution with surfactants (shampoos), Initial) was 9.6 · 10^4 cfu/mL and the “viable count With LAE” value (Fungi; Example 12, oil-in-water emulsion with non-ionic surfactants (face cream), 7 days) was 8.7 · 10^2 cfu/mL. The “viable count With LAE” value (Fungi; Example 12, oil-in-water emulsion with non-ionic surfactants (face cream), 14 days) was <9.9 · 10^1 cfu/mL, the “viable count With LAE” value (Fungi; Example 12, oil-in-water emulsion with non-ionic surfactants (face cream), Initial) was 1.7 · 10^4 cfu/mL and the “viable count With LAE” value (Fungi; Example 13, oil-in-water emulsion with non-ionic surfactants (sun protector, polysorbate 60), 7 days) was 2.7 · 10^2 cfu/mL. For the same compound, the “viable count With LAE” value (Fungi; Example 13, oil-in-water emulsion with non-ionic surfactants (sun protector, polysorbate 60), 14 days) was <9.9 · 10^1 cfu/mL, the “viable count With LAE” value (Fungi; Example 13, oil-in-water emulsion with non-ionic surfactants (sun protector, polysorbate 60), Initial) was 4.9 · 10^4 cfu/mL and the “viable count With LAE” value (Fungi; Example 14, oil-in-water emulsion with non-ionic surfactants (sun protector, cetyl dimethicone copolyol), 7 days) was 6.7 · 10^2 cfu/mL. The “viable count With LAE” value (Fungi; Example 14, oil-in-water emulsion with non-ionic surfactants (sun protector, cetyl dimethicone copolyol), 14 days) was <9.9 · 10^1 cfu/mL, the “viable count With LAE” value (Fungi; Example 14, oil-in-water emulsion with non-ionic surfactants (sun protector, cetyl dimethicone copolyol), Initial) was 5.3 · 10^4 cfu/mL and the “viable count With LAE” value (Fungi; Example 15, emulsion for hands care, 7 days) was 8.7 · 10^2 cfu/mL. The “viable count With LAE” value (Fungi; Example 15, emulsion for hands care, 14 days) was <9.9 · 10^1 cfu/mL, the “viable count With LAE” value (Fungi; Example 15, emulsion for hands care, Initial) was 5.8 · 10^4 cfu/mL and the “count at 28 days against the 14 days' count” value (shortened to “count at 28 days”) (inoculum mixture; Example 1, oil-in-water emulsion with non-ionic surfactant) was “no increase”. For the same compound, the “count at 28 days” value (inoculum mixture; Example 2, oil-in-water emulsion with an ionic emulsifier) was “no increase”, the “count at 28 days” value (inoculum mixture; Example 3, water in oil emulsion with non-ionic emulsifiers) was “no increase” and the “count at 28 days” value (inoculum mixture; Example 4, aqueous solution with a surfactants' mixture (bath gels, disodium cocoamfoacetate)) was “no increase”. For the same compound, the “count at 28 days” value (inoculum mixture; Example 5, aqueous solution with a surfactants' mixture (bath gels, disodium lauryl sulfosuccinate)) was “no increase”, the “count at 28 days” value (inoculum mixture; Example 6, hydroalcoholic gel (after-shaving lotions)) was “no increase” and the “count at 28 days” value (inoculum mixture; Example 7, facial tonic) was “no increase”. For the same compound, the “count at 28 days” value (inoculum mixture; Example 8, mask-up cleaner) was “no increase”, the “count at 28 days” value (inoculum mixture; Example 9, fluid oil-in-water emulsion with non-ionic surfactants (body oil)) was “no increase” and the “count at 28 days” value (inoculum mixture; Example 10, toothpaste formulation) was “no increase”. For the same compound, the “count at 28 days” value (inoculum mixture; Example 11, aqueous solution with surfactants (shampoos)) was “no increase”, the “count at 28 days” value (inoculum mixture; Example 12, oil-in-water emulsion with non-ionic surfactants (face cream)) was “no increase” and the “count at 28 days” value (inoculum mixture; Example 13, oil-in-water emulsion with non-ionic surfactants (sun protector, polysorbate 60)) was “no increase”. The “count at 28 days” value (inoculum mixture; Example 14, oil-in-water emulsion with non-ionic surfactants (sun protector, cetyl dimethicone copolyol)) was “no increase” and the “count at 28 days” value (inoculum mixture; Example 15, emulsion for hands care) was “no increase”.
